Values quoted from earlier work as cited in US20240268433A1, “Nutritional Compositions for Preserving Muscle Mass” (Dutch Medical Food B.V., priority 2021, published 2024).

Assays:
GABAA receptor = settings: chicken; administered with serine
[1] = test system: elderly adults exposed to bedrest; settings: bed rest induced muscle atrophy
[2] = test system: adults between the age of 25 and 59 years
[3] = test system: female individuals that complain about their sleep quality

With picrotoxin as the compound, how does the “effect on sedative and hypnotic effect of serine” value (GABAA receptor) read?
The value was “attenuated the sedative and hypnotic effect of serine”.

With `CC(C)(O)CC(=O)O` [HMB, Beta-hydroxy beta-methylbutyrate] as the compound, how does the “derangements in skeletal muscle metabolism and mitochondria” value [1] read?
Its value is “able to attenuate and prevent derangements in skeletal muscle metabolism and mitochondria”.

Which results are given for `N[C@@H](CO)C(=O)O` [serine]?
resistance or rebound insomnia after discontinuation of ingestion ([2]; after discontinuation of ingestion): did not appear to suffer from resistance or occurrence of rebound insomnia; quality of sleep (sleep initiation, nighttime awakenings) ([2]; ingestion about 30 minutes before going to sleep): beneficial effect on the quality of sleep

For `NCC(=O)O` [glycine], which daytime sleepiness ([3]; especially in the morning) is on record?
The daytime sleepiness was “positive effect”.

What about the “subjective quality of sleep” value ([3]; ingestion prior to sleep) of the same compound?
The value was “beneficial effect on the subjective quality of sleep”.
